Laboratory results as given in PubChem BioAssay AID1259407 (Chemical Carcinogenesis Research Information System (CCRIS), 2018).
Activity calls are given as the source filed them. How the calls were made is not given here.

Tested on: CCRIS mutagenicity, Ames/micronucleus/aberration tests
Assay: CCRIS mutagenicity studies

O=C(O)CN(CCN(CC(=O)O)CC(=O)O)CC(=O)O
mutagenic call (Test System: AMES SALMONELLA TYPHIMURIUM, Strain/Indicator: TA1535, Metabolic Activation: HAMSTER, LIVER, S-9, AROCLOR 1254 (30%), Method: PREINCUBATION): inactive; negative
mutagenic call (Test System: AMES SALMONELLA TYPHIMURIUM, Strain/Indicator: TA1535, Metabolic Activation: HAMSTER, LIVER, S-9, AROCLOR 1254, Method: STANDARD PLATE): inactive; negative
mutagenic call (Test System: AMES SALMONELLA TYPHIMURIUM, Strain/Indicator: TA1535, Metabolic Activation: NONE, Method: PREINCUBATION): inactive; negative
mutagenic call (Test System: AMES SALMONELLA TYPHIMURIUM, Strain/Indicator: TA1535, Metabolic Activation: NONE, Method: STANDARD PLATE): inactive; negative
mutagenic call (Test System: AMES SALMONELLA TYPHIMURIUM, Strain/Indicator: TA1535, Metabolic Activation: RAT LIVER S-9, PHENOBARBITAL AND BETA-NAPHTHOFLAVONE, Method: PREINCUBATION): inactive; negative
mutagenic call (Test System: AMES SALMONELLA TYPHIMURIUM, Strain/Indicator: TA1535, Metabolic Activation: RAT, LIVER, S-9, AROCLOR 1254 (10%), Method: PREINCUBATION): inactive; negative
mutagenic call (Test System: AMES SALMONELLA TYPHIMURIUM, Strain/Indicator: TA1535, Metabolic Activation: RAT, LIVER, S-9, AROCLOR 1254 (30%), Method: PREINCUBATION): inactive; negative
mutagenic call (Test System: AMES SALMONELLA TYPHIMURIUM, Strain/Indicator: TA1535, Metabolic Activation: RAT, LIVER, S-9, AROCLOR 1254, Method: STANDARD PLATE): inactive; negative
mutagenic call (Test System: AMES SALMONELLA TYPHIMURIUM, Strain/Indicator: TA1537, Metabolic Activation: HAMSTER, LIVER, S-9, AROCLOR 1254, Method: STANDARD PLATE): inactive; negative
mutagenic call (Test System: AMES SALMONELLA TYPHIMURIUM, Strain/Indicator: TA1537, Metabolic Activation: NONE, Method: PREINCUBATION): inactive; negative
mutagenic call (Test System: AMES SALMONELLA TYPHIMURIUM, Strain/Indicator: TA1537, Metabolic Activation: NONE, Method: STANDARD PLATE): inactive; negative
mutagenic call (Test System: AMES SALMONELLA TYPHIMURIUM, Strain/Indicator: TA1537, Metabolic Activation: RAT LIVER S-9, PHENOBARBITAL AND BETA-NAPHTHOFLAVONE, Method: PREINCUBATION): inactive; negative
mutagenic call (Test System: AMES SALMONELLA TYPHIMURIUM, Strain/Indicator: TA1537, Metabolic Activation: RAT, LIVER, S-9, AROCLOR 1254, Method: STANDARD PLATE): inactive; negative
mutagenic call (Test System: AMES SALMONELLA TYPHIMURIUM, Strain/Indicator: TA1538, Metabolic Activation: HAMSTER, LIVER, S-9, AROCLOR 1254, Method: STANDARD PLATE): inactive; negative
mutagenic call (Test System: AMES SALMONELLA TYPHIMURIUM, Strain/Indicator: TA1538, Metabolic Activation: NONE, Method: STANDARD PLATE): inactive; negative
mutagenic call (Test System: AMES SALMONELLA TYPHIMURIUM, Strain/Indicator: TA1538, Metabolic Activation: RAT, LIVER, S-9, AROCLOR 1254, Method: STANDARD PLATE): inactive; negative
mutagenic call (Test System: E. COLI, Strain/Indicator: WP2 UVRA, Metabolic Activation: HAMSTER, LIVER, S-9, AROCLOR 1254, Method: STANDARD PLATE): inactive; negative
mutagenic call (Test System: E. COLI, Strain/Indicator: WP2 UVRA, Metabolic Activation: HAMSTER, LIVER, S-9, Method: STANDARD PLATE): inactive; negative
mutagenic call (Test System: E. COLI, Strain/Indicator: WP2 UVRA, Metabolic Activation: MOUSE, LIVER, S-9, AROCLOR 1254, Method: STANDARD PLATE): inactive; negative
mutagenic call (Test System: E. COLI, Strain/Indicator: WP2 UVRA, Metabolic Activation: MOUSE, LIVER, S-9, Method: STANDARD PLATE): inactive; negative
mutagenic call (Test System: E. COLI, Strain/Indicator: WP2 UVRA, Metabolic Activation: NONE, Method: STANDARD PLATE): inactive; negative
mutagenic call (Test System: E. COLI, Strain/Indicator: WP2 UVRA, Metabolic Activation: RAT, LIVER, S-9, AROCLOR 1254, Method: STANDARD PLATE): inactive; negative
mutagenic call (Test System: E. COLI, Strain/Indicator: WP2 UVRA, Metabolic Activation: RAT, LIVER, S-9, Method: STANDARD PLATE): inactive; negative
mutagenic call (Test System: E.COLI, Strain/Indicator: WP2UVRA/PKM101, Metabolic Activation: NONE, Method: PREINCUBATION): inactive; negative
mutagenic call (Test System: E.COLI, Strain/Indicator: WP2UVRA/PKM101, Metabolic Activation: RAT LIVER S-9, PHENOBARBITAL AND BETA-NAPHTHOFLAVONE, Method: PREINCUBATION): inactive; negative
mutagenic call (Test System: E.COLI, Strain/Indicator: WP2UVRA, Metabolic Activation: NONE, Method: PREINCUBATION): inactive; negative
mutagenic call (Test System: E.COLI, Strain/Indicator: WP2UVRA, Metabolic Activation: RAT LIVER S-9, PHENOBARBITAL AND BETA-NAPHTHOFLAVONE, Method: PREINCUBATION): inactive; negative
mutagenic call (Test System: MOUSE LYMPHOMA, Strain/Indicator: L5178Y (TK+/TK-), Metabolic Activation: NONE, Method: SUSPENSION/PLATE): active; positive
mutagenic call (Test System: Mouse lymphoma, Strain/Indicator: L5178Y (tk+/tk-), Metabolic Activation: None, Method: Suspension/plate): inactive; negative
mutagenic call (Test System: Mouse lymphoma, Strain/Indicator: L5178Y (tk+/tk-), Metabolic Activation: Rat, Liver, S-9, Aroclor 1254, Method: Suspension/plate): inactive; negative
